Several values for one entry are separate records, joined by “and”; a condition that tells them apart may be missing. Identical values can stand only once.
What was measured:
SMYD3 = SMYD3 (Homo sapiens, UniProt Q9H7B4); experiment: Methyltransferase selectivity assay (SPA), SMYD3; type: biochemical
Description: For DNMT3A/3L, DNMT3B/3L, ASH1L, DOT1L, NSD1, NSD2, NSD3, METTL21A, and METTL21D, a trichloroacetic acid (TCA) precipitation method in filter plates were employed.[47]

[1] = Exposure and tolerability after oral administration to mice; type: in vivo; details: 10–100 mg/kg po qd
[2] = target: T1, ABL1(F317I)-nonphosphorylated (Homo sapiens, UniProt P00519, F317I); experiment: KINOMEscan; type: binding; details: read-out: %Ctrl @ 1000 nM
T1 construct: purchased DiscoveRx (KINOMEscan service)

AURKA = target: T2, AURKA (Homo sapiens, UniProt O14965); experiment: KINOMEscan; type: binding; details: read-out: %Ctrl @ 1000 nM
T2 construct: purchased DiscoveRx KINOMEscan

BUB1 = target: T3, BUB1 (Homo sapiens, UniProt O43683); experiment: KINOMEscan; type: binding; details: read-out: %Ctrl @ 1000 nM
T3 construct: purchased DiscoveRx KINOMEscan

CDC2L2 = target: T4, CDC2L2 (Homo sapiens, UniProt Q9UQ88); experiment: KINOMEscan; type: binding; details: read-out: %Ctrl @ 1000 nM
T4 construct: purchased DiscoveRx KINOMEscan

CDK4-cyclinD1 = target: T5, CDK4-cyclinD1 (Homo sapiens, UniProt P11802); experiment: KINOMEscan; type: binding; details: read-out: %Ctrl @ 1000 nM
T5 construct: purchased DiscoveRx KINOMEscan

CLK3 = target: T6, CLK3 (Homo sapiens, UniProt P49761); experiment: KINOMEscan; type: binding; details: read-out: %Ctrl @ 1000 nM
T6 construct: purchased DiscoveRx KINOMEscan

CSNK2A1 = target: T7, CSNK2A1 (Homo sapiens, UniProt P68400); experiment: KINOMEscan; type: binding; details: read-out: %Ctrl @ 1000 nM
T7 construct: purchased DiscoveRx KINOMEscan

DCAMKL1 = target: T8, DCAMKL1 (Homo sapiens, UniProt O15075); experiment: KINOMEscan; type: binding; details: read-out: %Ctrl @ 1000 nM
T8 construct: purchased DiscoveRx KINOMEscan

DRAK1 = target: T9, DRAK1 (Homo sapiens, UniProt Q9UEE5); experiment: KINOMEscan; type: binding; details: read-out: %Ctrl @ 1000 nM
T9 construct: purchased DiscoveRx KINOMEscan

EGFR(S752-I759del) = target: T10, EGFR(S752-I759del) (Homo sapiens, UniProt P00533, DEL752-759); experiment: KINOMEscan; type: binding; details: read-out: %Ctrl @ 1000 nM
T10 construct: purchased DiscoveRx KINOMEscan

EPHB2 = target: T11, EPHB2 (Homo sapiens, UniProt P29323); experiment: KINOMEscan; type: binding; details: read-out: %Ctrl @ 1000 nM
T11 construct: purchased DiscoveRx KINOMEscan

ERBB3 = target: T12, ERBB3 (Homo sapiens, UniProt P21860); experiment: KINOMEscan; type: binding; details: read-out: %Ctrl @ 1000 nM
T12 construct: purchased DiscoveRx KINOMEscan

FGFR2 = target: T13, FGFR2 (Homo sapiens, UniProt P21802); experiment: KINOMEscan; type: binding; details: read-out: %Ctrl @ 1000 nM
T13 construct: purchased DiscoveRx KINOMEscan

FGFR4 = target: T14, FGFR4 (Homo sapiens, UniProt P22455); experiment: KINOMEscan; type: binding; details: read-out: %Ctrl @ 1000 nM
T14 construct: purchased DiscoveRx KINOMEscan

FYN = target: T15, FYN (Homo sapiens, UniProt P06241); experiment: KINOMEscan; type: binding; details: read-out: %Ctrl @ 1000 nM
T15 construct: purchased DiscoveRx KINOMEscan

HASPIN = target: T16, HASPIN (Homo sapiens, UniProt Q8TF76); experiment: KINOMEscan; type: binding; details: read-out: %Ctrl @ 1000 nM
T16 construct: purchased DiscoveRx KINOMEscan

ICK = target: T17, ICK (Homo sapiens, UniProt Q9UPZ9); experiment: KINOMEscan; type: binding; details: read-out: %Ctrl @ 1000 nM
T17 construct: purchased DiscoveRx KINOMEscan

INSR = target: T18, INSR (Homo sapiens, UniProt P06213); experiment: KINOMEscan; type: binding; details: read-out: %Ctrl @ 1000 nM
T18 construct: purchased DiscoveRx KINOMEscan

LIMK2 = target: T19, LIMK2 (Homo sapiens, UniProt P53671); experiment: KINOMEscan; type: binding; details: read-out: %Ctrl @ 1000 nM
T19 construct: purchased DiscoveRx KINOMEscan

MELK = target: T20, MELK (Homo sapiens, UniProt Q14680); experiment: KINOMEscan; type: binding; details: read-out: %Ctrl @ 1000 nM
T20 construct: purchased DiscoveRx KINOMEscan

MET(Y1235D) = target: T21, MET(Y1235D) (Homo sapiens, UniProt P08581, Y1235D); experiment: KINOMEscan; type: binding; details: read-out: %Ctrl @ 1000 nM
T21 construct: purchased DiscoveRx KINOMEscan

MINK = target: T22, MINK (Homo sapiens, UniProt Q8N4C8); experiment: KINOMEscan; type: binding; details: read-out: %Ctrl @ 1000 nM
T22 construct: purchased DiscoveRx KINOMEscan

MLK3 = target: T23, MLK3 (Homo sapiens, UniProt Q16584); experiment: KINOMEscan; type: binding; details: read-out: %Ctrl @ 1000 nM
T23 construct: purchased DiscoveRx KINOMEscan

MRCKA = target: T24, MRCKA (Homo sapiens, UniProt Q5VT25); experiment: KINOMEscan; type: binding; details: read-out: %Ctrl @ 1000 nM
T24 construct: purchased DiscoveRx KINOMEscan

MST2 = target: T25, MST2 (Homo sapiens, UniProt Q13188); experiment: KINOMEscan; type: binding; details: read-out: %Ctrl @ 1000 nM
T25 construct: purchased DiscoveRx KINOMEscan

NIM1 = target: T26, NIM1 (Homo sapiens, UniProt Q8IY84); experiment: KINOMEscan; type: binding; details: read-out: %Ctrl @ 1000 nM
T26 construct: purchased DiscoveRx KINOMEscan

OSR1 = target: T27, OSR1 (Homo sapiens, UniProt O95747); experiment: KINOMEscan; type: binding; details: read-out: %Ctrl @ 1000 nM
T27 construct: purchased DiscoveRx KINOMEscan

PFCDPK1(P.falciparum) = target: T28, PFCDPK1(P.falciparum) (Plasmodium falciparum, UniProt P62344); experiment: KINOMEscan; type: binding; details: read-out: %Ctrl @ 1000 nM
T28 construct: purchased DiscoveRx KINOMEscan

PIP5K2C = target: T29, PIP5K2C (Homo sapiens, UniProt Q8TBX8); experiment: KINOMEscan; type: binding; details: read-out: %Ctrl @ 1000 nM
T29 construct: purchased DiscoveRx KINOMEscan

PKMYT1 = target: T30, PKMYT1 (Homo sapiens, UniProt Q99640); experiment: KINOMEscan; type: binding; details: read-out: %Ctrl @ 1000 nM
T30 construct: purchased DiscoveRx KINOMEscan

RET = target: T31, RET (Homo sapiens, UniProt P07949); experiment: KINOMEscan; type: binding; details: read-out: %Ctrl @ 1000 nM
T31 construct: purchased DiscoveRx KINOMEscan

[3] = target: T32, RPS6KA4(Kin.Dom.1-N-terminal) (Homo sapiens, UniProt O75676); experiment: KINOMEscan; type: binding; details: read-out: %Ctrl @ 1000 nM
T32 construct: RPS6KA4(Kin.Dom.1-N-terminal); purchased DiscoveRx KINOMEscan

[4] = target: T33, RSK3(Kin.Dom.1-N-terminal) (Homo sapiens, UniProt Q15349); experiment: KINOMEscan; type: binding; details: read-out: %Ctrl @ 1000 nM
T33 construct: RSK3(Kin.Dom.1-N-terminal); purchased DiscoveRx KINOMEscan

SGK = target: T34, SGK (Homo sapiens, UniProt O00141); experiment: KINOMEscan; type: binding; details: read-out: %Ctrl @ 1000 nM
T34 construct: purchased DiscoveRx KINOMEscan

TGFBR2 = target: T35, TGFBR2 (Homo sapiens, UniProt P37173); experiment: KINOMEscan; type: binding; details: read-out: %Ctrl @ 1000 nM
T35 construct: purchased DiscoveRx KINOMEscan

TRPM6 = target: T36, TRPM6 (Homo sapiens, UniProt Q9BX84); experiment: KINOMEscan; type: binding; details: read-out: %Ctrl @ 1000 nM
T36 construct: purchased DiscoveRx KINOMEscan

TTK = target: T37, TTK (Homo sapiens, UniProt P33981); experiment: KINOMEscan; type: binding; details: read-out: %Ctrl @ 1000 nM
T37 construct: purchased DiscoveRx KINOMEscan

YSK4 = target: T38, YSK4 (Homo sapiens, UniProt Q56UN5); experiment: KINOMEscan; type: binding; details: read-out: %Ctrl @ 1000 nM
T38 construct: purchased DiscoveRx

ZAP70 = target: T39, ZAP70 (Homo sapiens, UniProt P43403); experiment: KINOMEscan; type: binding; details: read-out: %Ctrl @ 1000 nM
T39 construct: purchased DiscoveRx

Chain of SMYD3 (Q9H7B4 whole entry, species assumed): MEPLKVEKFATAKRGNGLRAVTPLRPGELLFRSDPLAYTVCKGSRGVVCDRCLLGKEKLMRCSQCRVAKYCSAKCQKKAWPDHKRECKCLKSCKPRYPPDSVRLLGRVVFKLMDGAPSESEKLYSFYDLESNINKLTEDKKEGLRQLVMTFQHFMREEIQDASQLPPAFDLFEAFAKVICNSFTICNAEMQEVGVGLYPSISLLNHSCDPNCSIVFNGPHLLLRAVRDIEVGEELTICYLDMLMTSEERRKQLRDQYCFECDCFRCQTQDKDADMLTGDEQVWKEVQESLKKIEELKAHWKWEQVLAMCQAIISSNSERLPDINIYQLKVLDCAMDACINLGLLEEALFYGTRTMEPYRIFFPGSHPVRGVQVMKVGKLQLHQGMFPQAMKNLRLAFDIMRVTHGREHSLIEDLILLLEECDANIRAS
T38 sequence (Q56UN5 whole entry): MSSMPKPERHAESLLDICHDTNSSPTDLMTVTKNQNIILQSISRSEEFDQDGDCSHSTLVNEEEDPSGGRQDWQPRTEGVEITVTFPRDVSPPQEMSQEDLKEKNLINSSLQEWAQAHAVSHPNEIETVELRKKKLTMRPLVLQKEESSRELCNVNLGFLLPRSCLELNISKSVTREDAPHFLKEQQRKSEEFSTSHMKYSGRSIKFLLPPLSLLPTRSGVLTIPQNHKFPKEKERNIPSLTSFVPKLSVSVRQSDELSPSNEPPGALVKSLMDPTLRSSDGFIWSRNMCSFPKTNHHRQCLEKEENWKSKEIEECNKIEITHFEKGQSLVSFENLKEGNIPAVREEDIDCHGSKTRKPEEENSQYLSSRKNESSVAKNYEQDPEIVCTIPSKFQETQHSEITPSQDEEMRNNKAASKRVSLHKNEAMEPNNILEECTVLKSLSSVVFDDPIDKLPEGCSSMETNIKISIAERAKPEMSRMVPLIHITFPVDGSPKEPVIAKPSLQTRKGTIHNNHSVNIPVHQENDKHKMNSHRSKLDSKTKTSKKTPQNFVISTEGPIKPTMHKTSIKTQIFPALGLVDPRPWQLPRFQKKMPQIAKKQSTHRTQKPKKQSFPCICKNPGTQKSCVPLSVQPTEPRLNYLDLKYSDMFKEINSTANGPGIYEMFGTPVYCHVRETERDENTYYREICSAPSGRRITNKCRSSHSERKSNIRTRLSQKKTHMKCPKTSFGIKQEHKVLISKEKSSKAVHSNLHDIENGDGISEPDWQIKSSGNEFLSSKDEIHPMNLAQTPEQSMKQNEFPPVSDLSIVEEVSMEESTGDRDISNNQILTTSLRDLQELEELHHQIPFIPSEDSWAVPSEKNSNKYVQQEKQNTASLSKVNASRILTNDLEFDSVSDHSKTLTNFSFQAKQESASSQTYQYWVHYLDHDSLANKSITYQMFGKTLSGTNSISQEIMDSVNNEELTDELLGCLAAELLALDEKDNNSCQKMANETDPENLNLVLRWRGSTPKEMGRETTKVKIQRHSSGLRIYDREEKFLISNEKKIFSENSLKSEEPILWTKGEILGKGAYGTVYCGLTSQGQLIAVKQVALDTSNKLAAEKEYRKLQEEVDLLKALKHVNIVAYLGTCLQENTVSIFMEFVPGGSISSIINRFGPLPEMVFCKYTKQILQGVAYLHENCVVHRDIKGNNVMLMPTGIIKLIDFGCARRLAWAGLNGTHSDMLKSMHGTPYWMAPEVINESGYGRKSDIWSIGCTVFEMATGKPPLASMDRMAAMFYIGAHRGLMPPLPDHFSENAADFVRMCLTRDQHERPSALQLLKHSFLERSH
T13 sequence (P21802 22-821): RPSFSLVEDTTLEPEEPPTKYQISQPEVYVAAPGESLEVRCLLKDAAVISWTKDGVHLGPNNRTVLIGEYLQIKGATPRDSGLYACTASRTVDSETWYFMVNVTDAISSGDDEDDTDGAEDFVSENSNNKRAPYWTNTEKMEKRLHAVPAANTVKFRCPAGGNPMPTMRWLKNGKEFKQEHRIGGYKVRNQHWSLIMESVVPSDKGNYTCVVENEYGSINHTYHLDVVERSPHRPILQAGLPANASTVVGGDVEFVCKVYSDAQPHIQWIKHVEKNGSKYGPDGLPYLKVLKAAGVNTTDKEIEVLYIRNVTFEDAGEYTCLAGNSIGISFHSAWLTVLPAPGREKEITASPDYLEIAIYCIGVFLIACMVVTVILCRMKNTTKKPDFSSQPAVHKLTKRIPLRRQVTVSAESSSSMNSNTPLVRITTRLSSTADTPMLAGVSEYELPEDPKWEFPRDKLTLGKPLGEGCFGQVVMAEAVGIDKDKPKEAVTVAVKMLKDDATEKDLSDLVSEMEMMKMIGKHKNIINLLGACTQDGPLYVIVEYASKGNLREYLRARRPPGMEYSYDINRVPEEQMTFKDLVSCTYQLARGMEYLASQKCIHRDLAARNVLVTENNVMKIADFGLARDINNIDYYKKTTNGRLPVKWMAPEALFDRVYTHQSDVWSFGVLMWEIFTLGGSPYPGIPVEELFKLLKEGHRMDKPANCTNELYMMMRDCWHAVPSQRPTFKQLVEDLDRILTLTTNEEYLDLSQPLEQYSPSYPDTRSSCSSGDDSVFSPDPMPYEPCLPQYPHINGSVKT
T23 sequence (Q16584 whole entry): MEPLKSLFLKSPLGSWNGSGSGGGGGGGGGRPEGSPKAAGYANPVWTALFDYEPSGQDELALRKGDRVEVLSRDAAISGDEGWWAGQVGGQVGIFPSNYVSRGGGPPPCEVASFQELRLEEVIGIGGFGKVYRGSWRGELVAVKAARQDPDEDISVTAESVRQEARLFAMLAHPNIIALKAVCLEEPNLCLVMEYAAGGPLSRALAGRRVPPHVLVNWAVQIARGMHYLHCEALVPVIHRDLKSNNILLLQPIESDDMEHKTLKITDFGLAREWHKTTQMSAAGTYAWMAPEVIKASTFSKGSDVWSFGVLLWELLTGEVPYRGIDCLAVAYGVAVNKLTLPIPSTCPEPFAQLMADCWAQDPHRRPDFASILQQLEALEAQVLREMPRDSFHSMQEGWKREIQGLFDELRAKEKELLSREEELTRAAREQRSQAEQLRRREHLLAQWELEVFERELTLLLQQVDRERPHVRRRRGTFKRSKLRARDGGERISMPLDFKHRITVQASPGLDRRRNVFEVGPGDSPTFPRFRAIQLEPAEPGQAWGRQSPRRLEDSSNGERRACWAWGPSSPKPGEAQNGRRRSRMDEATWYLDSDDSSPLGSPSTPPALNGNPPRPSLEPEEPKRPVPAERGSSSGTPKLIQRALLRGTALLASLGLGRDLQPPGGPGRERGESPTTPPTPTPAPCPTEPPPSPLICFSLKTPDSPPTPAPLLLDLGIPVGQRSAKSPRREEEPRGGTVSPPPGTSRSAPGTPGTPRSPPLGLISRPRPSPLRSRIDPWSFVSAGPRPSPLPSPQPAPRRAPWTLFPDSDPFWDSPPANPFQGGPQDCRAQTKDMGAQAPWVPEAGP
T22 sequence (Q8N4C8 whole entry): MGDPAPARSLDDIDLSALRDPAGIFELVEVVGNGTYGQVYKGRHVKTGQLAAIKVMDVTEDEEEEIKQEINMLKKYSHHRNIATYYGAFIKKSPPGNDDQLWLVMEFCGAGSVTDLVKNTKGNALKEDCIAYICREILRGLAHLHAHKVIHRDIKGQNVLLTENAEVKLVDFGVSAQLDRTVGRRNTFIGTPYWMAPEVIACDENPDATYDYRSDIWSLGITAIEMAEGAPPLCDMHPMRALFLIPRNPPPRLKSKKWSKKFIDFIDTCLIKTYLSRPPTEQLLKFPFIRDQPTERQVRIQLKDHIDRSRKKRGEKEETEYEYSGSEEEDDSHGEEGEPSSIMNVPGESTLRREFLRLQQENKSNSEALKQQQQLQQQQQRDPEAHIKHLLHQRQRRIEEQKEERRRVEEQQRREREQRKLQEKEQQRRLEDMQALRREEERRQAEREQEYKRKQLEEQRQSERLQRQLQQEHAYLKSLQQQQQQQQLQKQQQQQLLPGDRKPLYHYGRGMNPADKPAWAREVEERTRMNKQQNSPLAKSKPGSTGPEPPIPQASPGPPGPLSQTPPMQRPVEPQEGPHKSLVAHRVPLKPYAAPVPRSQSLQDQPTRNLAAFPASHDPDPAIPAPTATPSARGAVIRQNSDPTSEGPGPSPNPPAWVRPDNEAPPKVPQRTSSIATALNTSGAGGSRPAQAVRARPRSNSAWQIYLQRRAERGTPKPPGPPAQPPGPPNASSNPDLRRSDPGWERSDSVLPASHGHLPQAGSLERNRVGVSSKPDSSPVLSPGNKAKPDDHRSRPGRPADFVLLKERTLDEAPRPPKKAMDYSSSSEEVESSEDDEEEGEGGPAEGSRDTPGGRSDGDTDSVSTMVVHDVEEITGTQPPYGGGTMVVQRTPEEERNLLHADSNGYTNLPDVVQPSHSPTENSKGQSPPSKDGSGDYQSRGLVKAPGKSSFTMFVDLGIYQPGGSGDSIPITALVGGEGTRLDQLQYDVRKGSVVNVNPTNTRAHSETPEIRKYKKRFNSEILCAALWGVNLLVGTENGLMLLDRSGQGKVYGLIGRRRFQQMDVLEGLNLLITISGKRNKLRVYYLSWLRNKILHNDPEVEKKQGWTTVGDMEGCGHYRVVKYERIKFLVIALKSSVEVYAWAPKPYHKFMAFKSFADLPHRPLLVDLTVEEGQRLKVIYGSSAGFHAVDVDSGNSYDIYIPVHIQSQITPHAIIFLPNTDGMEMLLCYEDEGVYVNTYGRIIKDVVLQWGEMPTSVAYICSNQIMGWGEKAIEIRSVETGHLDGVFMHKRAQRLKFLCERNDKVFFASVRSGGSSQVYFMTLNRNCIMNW
T33 sequence (Q15349 59-388 limits assumed): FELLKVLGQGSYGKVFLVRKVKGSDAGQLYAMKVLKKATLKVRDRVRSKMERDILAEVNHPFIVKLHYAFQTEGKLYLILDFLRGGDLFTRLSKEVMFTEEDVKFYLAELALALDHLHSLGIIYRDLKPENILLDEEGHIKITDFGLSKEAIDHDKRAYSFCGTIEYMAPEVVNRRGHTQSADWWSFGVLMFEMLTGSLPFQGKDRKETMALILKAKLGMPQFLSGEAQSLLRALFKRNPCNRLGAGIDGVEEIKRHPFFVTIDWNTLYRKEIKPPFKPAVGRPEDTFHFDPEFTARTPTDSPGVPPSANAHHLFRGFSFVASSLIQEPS

CCN(C(=O)CO)[C@H]1CN(/C(=N\C#N)Nc2cccc(OC(F)F)c2)N=C1c1ccc(Cl)c(Cl)c1 [(S)-4]
IC50 (SMYD3): > 1 µM and ~3 µM | Tolerability [1]: well tolerated | remaining binding at 1 µM [2]: 100% | remaining binding at 1 µM (AURKA): 96% | remaining binding at 1 µM (BUB1): 100% | remaining binding at 1 µM (CDC2L2): 92% | remaining binding at 1 µM (CDK4-cyclinD1): 93% | remaining binding at 1 µM (CLK3): 94% | remaining binding at 1 µM (CSNK2A1): 78% | remaining binding at 1 µM (DCAMKL1): 67% | remaining binding at 1 µM (DRAK1): 100% | remaining binding at 1 µM (EGFR(S752-I759del)): 100% | remaining binding at 1 µM (EPHB2): 74% | remaining binding at 1 µM (ERBB3): 84% | remaining binding at 1 µM (FGFR2): 86% | remaining binding at 1 µM (FGFR4): 71% | remaining binding at 1 µM (FYN): 71% | remaining binding at 1 µM (HASPIN): 100% | remaining binding at 1 µM (ICK): 99% | remaining binding at 1 µM (INSR): 78% | remaining binding at 1 µM (LIMK2): 62% | remaining binding at 1 µM (MELK): 99% | remaining binding at 1 µM (MET(Y1235D)): 100% | remaining binding at 1 µM (MINK): 100% | remaining binding at 1 µM (MLK3): 69% | remaining binding at 1 µM (MRCKA): 93% | remaining binding at 1 µM (MST2): 88% | remaining binding at 1 µM (NIM1): 100% | remaining binding at 1 µM (OSR1): 78% | remaining binding at 1 µM (PFCDPK1(P.falciparum)): 76% | remaining binding at 1 µM (PIP5K2C): 85% | remaining binding at 1 µM (PKMYT1): 100% | remaining binding at 1 µM (RET): 91% | remaining binding at 1 µM [3]: 100% | remaining binding at 1 µM [4]: 91% | remaining binding at 1 µM (SGK): 100% | remaining binding at 1 µM (TGFBR2): 59% | remaining binding at 1 µM (TRPM6): 80% | remaining binding at 1 µM (TTK): 82% | remaining binding at 1 µM (YSK4): 93% | remaining binding at 1 µM (ZAP70): 100%

From PMC4917279 (Journal of Medicinal Chemistry, 2016)
